From patent publication US9981923B2, “1,2,3 Triazole antifungal agents and preparation thereof” (COUNCIL OF SCIENTIFIC & INDUSTRIAL RESEARCH, priority 2014, dated 2018)
Values after ≈ are worked out from the molar mass of the structure shown. Read-outs that look alike come from different tables or passages of the source.

Experiments:
Assay in all cases: Antifungal susceptibility by microbroth dilution (CLSI)
Assay type in all cases: cell-based
[1] = test system: Candida albicans ATCC 24433
Protocol: (§1) The synthesized compounds were evaluated for antifungal susceptibility by microbroth dilution method according to the recommendations of the Clinical Laboratory Standards Institute (CLSI 2008). Briefly, appropriate amount of compounds were dissolved in dimethyl sulfoxide to get 100× final strength. The stock was then diluted 1:50 in RPMI/YPG medium and 200 μl from this was added to the first row of a 96-well microtitre plate. The compounds were serially diluted two fold in successive wells to get a range of 1-128 μg/ml. Fungal yeast cells (˜2×10^3 cfu/mL), freshly grown in YPG broth in logarithmic phase, were suspended in the medium and inoculated (100 μl) in the wells of the plate. For filamentous fungi, 2×10^4 spores/mL were added. The microtitre plate was incubated for 48 h, and the absorbance was measured at 600 nm by using microtitre plate reader to assess cell growth.

[2] = test system: Aspergillus niger ATCC 10578
Protocol: as §1

[3] = test system: Cryptococcus neoformans ATCC 34664
Protocol: as §1

[4] = test system: Aspergillus fumigatus MCC 1046
Protocol: as §1

[5] = test system: Candida glabrata NCYC 388
Protocol: as §1

[6] = test system: Candida albicans ATCC 10231
Protocol: as §1

C. tropicalis ATCC 750 = settings: Candida tropicalis, ATCC750; Table 2
Protocol: as §1

[7] = Table 1, 48 h, >90% inhibition of growth, range 1-128 μg/ml
[8] = Table 1, 48 h, >90% inhibition of growth
[9] = Candida albicans, ATCC24433, Table 2, read-out: MIC values
[10] = Aspergillus niger, ATCC10578, Table 2, read-out: MIC values
[11] = Cryptococcus neoformans, ATCC34664, Table 2, read-out: MIC values
[12] = Aspergillus fumigatus, MCC1046, Table 2, read-out: MIC values
[13] = Nakaseomyces glabratus, NCYC388, Table 2, read-out: MIC values
[14] = Candida albicans, ATCC10231, Table 2, read-out: MIC values

SMILES | MIC [1, 7] [µg/mL] | MIC [2, 8] [µg/mL] | MIC [3, 8] [µg/mL] | MIC [4, 8] [µg/mL] | MIC [5, 8] [µg/mL] | MIC [6, 8] [µg/mL] | MIC [1, 9] [µg/mL] | MIC [2, 10] [µg/mL] | MIC [3, 11] [µg/mL] | MIC [4, 12] [µg/mL] | MIC [5, 13] [µg/mL] | MIC [6, 14] [µg/mL] | MIC (C. tropicalis ATCC 750) [µg/mL]
CCC(O)(c1ccccc1)c1cn(-c2cc(Cl)ccc2O)nn1 (stereo not drawn) [Compound 2da] | 128 (≈ 388 µM) | 64 (≈ 194 µM) | >128 | 128 (≈ 388 µM) | 128 (≈ 388 µM) | – | – | – | – | – | – | – | –
CCC(O)(c1ccccc1)c1cn(-c2ccc(Cl)cc2O)nn1 (stereo not drawn) [Compound 2db] | >128 | 128 (≈ 388 µM) | 128 (≈ 388 µM) | 128 (≈ 388 µM) | 64 (≈ 194 µM) | 128 (≈ 388 µM) | – | – | – | – | – | – | –
CCCCC(O)(Cc1cn(-c2ccc(Cl)cc2O)nn1)c1ccccc1 (stereo not drawn) [Compound 2hb] | 64 (≈ 172 µM) | >128 | 32 (≈ 86.1 µM) | >128 | 64 (≈ 172 µM) | >128 | – | – | – | – | – | – | –
CC(O)(Cc1cn(-c2cc(Cl)ccc2O)nn1)c1ccc(F)cc1F (stereo not drawn) [Compound 3aa, 4-Chloro-2-(4-(2-(2,4-difluorophenyl)-2-hydroxypropyl)-1H-1,2,3-triazol-1-yl)phenol] | – | – | – | – | – | – | 32 (≈ 87.5 µM) | 128 (≈ 350 µM) | 64 (≈ 175 µM) | > 256 | 32 (≈ 87.5 µM) | 32 (≈ 87.5 µM) | 128 (≈ 350 µM)
CC(O)(Cc1cn(-c2ccc(Cl)cc2O)nn1)c1ccc(F)cc1F (stereo not drawn) [Compound 3ab, 5-Chloro-2-(4-(2-(2,4-difluorophenyl)-2-hydroxypropyl)-1H-1,2,3-triazol-1-yl)phenol] | – | – | – | – | – | – | 16 (≈ 43.7 µM) | 64 (≈ 175 µM) | 32 (≈ 87.5 µM) | 64 (≈ 175 µM) | 32 (≈ 87.5 µM) | 32 (≈ 87.5 µM) | 64 (≈ 175 µM)
CC(O)(Cc1cn(-c2ccc(F)cc2O)nn1)c1ccc(F)cc1F (stereo not drawn) [Compound 3ac, 2-(4-(2-(2,4-Difluorophenyl)-2-hydroxypropyl)-1H-1,2,3-triazol-1-yl)-5-fluorophenol] | – | – | – | – | – | – | 8 (≈ 22.9 µM) | 128 (≈ 366 µM) | 128 (≈ 366 µM) | 64 (≈ 183 µM) | – | – | 128 (≈ 366 µM)
CC(O)(Cc1cn(-c2ccccc2O)nn1)c1ccc(F)cc1F (stereo not drawn) [Compound 3ad, 2-(4-(2-(2,4-Difluorophenyl)-2-hydroxypropyl)-1H-1,2,3-triazol-1-yl)phenol] | – | – | – | – | – | – | 8 (≈ 24.1 µM) | 128 (≈ 386 µM) | 128 (≈ 386 µM) | 128 (≈ 386 µM) | – | – | 256 (≈ 773 µM)
CC(O)(Cc1cn(-c2cc(Cl)ccc2O)nn1)c1ccc(Cl)cc1Cl (stereo not drawn) [Compound 3ba, 4-Chloro-2-(4-(2-(2,4-dichlorophenyl)-2-hydroxypropyl)-1H-1,2,3-triazol-1-yl)phenol] | – | – | – | – | – | – | 32 (≈ 80.3 µM) | > 256 | > 256 | > 256 | – | – | > 256
CC(O)(Cc1cn(-c2ccc(Cl)cc2O)nn1)c1ccc(Cl)cc1Cl (stereo not drawn) [Compound 3bb, 5-Chloro-2-(4-(2-(2,4-dichlorophenyl)-2-hydroxypropyl)-1H-1,2,3-triazol-1-yl)phenol] | – | – | – | – | – | – | 4 (≈ 10 µM) | 32 (≈ 80.3 µM) | 8 (≈ 20.1 µM) | 16 (≈ 40.1 µM) | 16 (≈ 40.1 µM) | 16 (≈ 40.1 µM) | 32 (≈ 80.3 µM)
CC(O)(Cc1cn(-c2ccc(F)cc2O)nn1)c1ccc(Cl)cc1Cl (stereo not drawn) [Compound 3bc, 2-(4-(2-(2,4-Dichlorophenyl)-2-hydroxypropyl)-1H-1,2,3-triazol-1-yl)-5-fluorophenol] | – | – | – | – | – | – | 16 (≈ 41.9 µM) | 64 (≈ 167 µM) | 16 (≈ 41.9 µM) | 64 (≈ 167 µM) | 16 (≈ 41.9 µM) | 8 (≈ 20.9 µM) | 32 (≈ 83.7 µM)
CC(O)(Cc1cn(-c2ccccc2O)nn1)c1ccc(Cl)cc1Cl (stereo not drawn) [Compound 3bd, 2-(4-(2-(2,4-Dichlorophenyl)-2-hydroxypropyl)-1H-1,2,3-triazol-1-yl)phenol] | – | – | – | – | – | – | 8 (≈ 22 µM) | 32 (≈ 87.9 µM) | 32 (≈ 87.9 µM) | 16 (≈ 43.9 µM) | – | – | 64 (≈ 176 µM)
Oc1cc(Cl)ccc1-n1cc(CC(O)c2ccc(C(F)(F)F)cc2F)nn1 (stereo not drawn) [Compound 3cb, 5-Chloro-2-(4-(2-(2-fluoro-4-(trifluoromethyl)phenyl)-2-hydroxyethyl)-1H-1,2,3-triazol-1-yl)phenol] | – | – | – | – | – | – | 16 (≈ 39.8 µM) | > 256 | > 256 | > 256 | – | – | > 256
Oc1cc(F)ccc1-n1cc(CC(O)c2ccc(C(F)(F)F)cc2F)nn1 (stereo not drawn) [Compound 3cc, 5-Fluoro-2-(4-(2-(2-fluoro-4-(trifluoromethyl)phenyl)-2-hydroxyethyl)-1H-1,2,3-triazol-1-yl)phenol] | – | – | – | – | – | – | 128 (≈ 332 µM) | > 256 | > 256 | > 256 | – | – | > 256
CC(O)(Cc1cn(-c2cc(Cl)ccc2O)nn1)c1ccc(F)cc1 (stereo not drawn) [Compound 3da, 4-Chloro-2-(4-(2(4fluorophenyl)-2-hydroxypropyl)-1H-1,2,3-triazol-1-yl)phenol] | – | – | – | – | – | – | 32 (≈ 92 µM) | 128 (≈ 368 µM) | 64 (≈ 184 µM) | 64 (≈ 184 µM) | 64 (≈ 184 µM) | 32 (≈ 92 µM) | 128 (≈ 368 µM)
CC(O)(Cc1cn(-c2ccc(Cl)cc2O)nn1)c1ccc(F)cc1 (stereo not drawn) [Compound 3db, 5-Chloro-2-(4-(2-(4-fluorophenyl)-2-hydroxypropyl)-1H-1,2,3-triazol-1-yl)phenol] | – | – | – | – | – | – | 16 (≈ 46 µM) | 64 (≈ 184 µM) | 128 (≈ 368 µM) | 32 (≈ 92 µM) | – | – | 128 (≈ 368 µM)
CC(O)(Cc1cn(-c2ccc(F)cc2O)nn1)c1ccc(F)cc1 (stereo not drawn) [Compound 3dc, 5-Fluoro-2-(4-(2-(4-fluorophenyl)-2-hydroxypropyl)-1H-1,2,3-triazol-1-yl)phenol] | – | – | – | – | – | – | 64 (≈ 193 µM) | 256 (≈ 773 µM) | 256 (≈ 773 µM) | 128 (≈ 386 µM) | – | – | > 256
CC(O)(Cc1cn(-c2ccccc2O)nn1)c1ccc(F)cc1 (stereo not drawn) [Compound 3dd, 2-(4-(2-(4-Fluorophenyl)-2-hydroxypropyl)-1H-1,2,3-triazol-1-yl)phenol] | – | – | – | – | – | – | 64 (≈ 204 µM) | 256 (≈ 817 µM) | 256 (≈ 817 µM) | 256 (≈ 817 µM) | – | – | > 256
CC(O)(Cc1cn(-c2ccc(F)cc2O)nn1)c1ccc(Cl)cc1 (stereo not drawn) [Compound 3ec, 2-(4-(2-(4-Chlorophenyl)-2-hydroxypropyl)-1H-1,2,3-triazol-1-yl)-5-fluorophenol] | – | – | – | – | – | – | 8 (≈ 23 µM) | 128 (≈ 368 µM) | 128 (≈ 368 µM) | 64 (≈ 184 µM) | – | – | 128 (≈ 368 µM)
CC(O)(Cc1cn(-c2ccccc2O)nn1)c1ccc(Cl)cc1 (stereo not drawn) [Compound 3ed, 2-(4-(2-(4-Chlorophenyl)-2-hydroxypropyl)-1H-1,2,3-triazol-1-yl)phenol] | – | – | – | – | – | – | 8 (≈ 24.3 µM) | 128 (≈ 388 µM) | 128 (≈ 388 µM) | 64 (≈ 194 µM) | – | – | 256 (≈ 776 µM)
CC(O)(Cc1cn(-c2cc(Cl)ccc2O)nn1)c1ccc(Br)cc1 (stereo not drawn) [Compound 3fa, 2-(4-(2-(4-Bromophenyl)-2-hydroxypropyl)-1H-1,2,3-triazol-1-yl)-4-chlorophenol] | – | – | – | – | – | – | 4 (≈ 9.79 µM) | 32 (≈ 78.3 µM) | 32 (≈ 78.3 µM) | 16 (≈ 39.2 µM) | – | – | 64 (≈ 157 µM)
CC(O)(Cc1cn(-c2ccccc2O)nn1)c1ccc(Br)cc1 (stereo not drawn) [Compound 3fd, 2-(4-(2-(4-Bromophenyl)-2-hydroxypropyl)-1H-1,2,3-triazol-1-yl)phenol] | – | – | – | – | – | – | 32 (≈ 85.5 µM) | 128 (≈ 342 µM) | 128 (≈ 342 µM) | 128 (≈ 342 µM) | – | – | 256 (≈ 684 µM)
